Counter-ions that a name gives are not always drawn.
Biological target: recombinant human CETP protein (Homo sapiens (Human), UniProt P11597)
Assay: Test of CETP inhibition activity (in vitro, buffer-based)
Assay type: biochemical
Conditions: [14C]-cholesteryl ester transfer from reconstituted HDL to acceptor lipoprotein, 37° C., 60 minutes, PBS buffer
Experimental: Test of CETP Inhibition Activity (In Vitro, Buffer-Based)
(1) Preparation of Reconstituted HDL
Cholesterol (1.125 μmol), phosphatidyl choline (4.5 μmol) and [^14C]-labeled cholesteryl ester (2.0 μCi; 40 μl) were taken in a glass test tube and well mixed with a vortex, and dried under a nitrogen gas current so that it formed a thin film. The obtained mixture was dissolved in ethanol (200 μl), which was designated as Solution A. A PBS solution [a mixed solution of Na2HPO4 (30 mM), KH2PO4 (8.8 mM), NaCl (60 mM) and EDTA (pH 7.4; 0.67 mM); 4 ml] was taken in a tube and the reaction solution was vigorously stirred with a vortex under a nitrogen current. The above-described Solution A was gently injected into this mixture with a syringe and the reaction solution was vigorously stirred with a vortex for 5 minutes under a nitrogen current. Sodium cholate (200 mM; 0.38 ml) was added to the obtained mixture and the reaction solution was stirred for 2 minutes. ApoA-I protein (3 mg) was added to the obtained mixture and the reaction solution was stirred for 2 minutes. The obtained mixture was adjusted to 5 ml with the PBS solution and then dialyzed with the PBS solution. The obtained mixture was designated as the reconstituted HDL.
(2) Preparation of Acceptor Lipoprotein
NaBr was added to the plasma of a healthy person and the density of the mixture was adjusted to 1.019, and the mixture was subjected to density gradient centrifugation (40000 rpm, for 16 hours) to remove the fraction having a density of less than 1.019. NaBr was added to the obtained mixture and the density of the solution was adjusted to 1.063, and the solution was subjected to density gradient centrifugation (40000 rpm, 18 hours) to provide the fraction consisting of IDL (intermediate density lipoprotein) and LDL (1.019<density<1.063). The obtained fraction was dialyzed with the PBS solution. The obtained mixture was designated as the acceptor lipoprotein.
(3) Measurement of CETP Inhibition Activity
A recombinant human CETP protein (manufactured by Roar Biomedical Inc.; 4.5 ng), the acceptor lipoprotein described in (2) above (32.5 μg) and 5,5′-dithio-bis-(2-nitrobenzoic acid) (7 mM, 15 μl) were taken in a 96 well plate and the total amount of the mixture was adjusted to 48.5 μl with the PBS solution. The test compound [DMSO solution (concentration: 0.15, 0.5, 1.5, 5, 15, 50, 150 and 500 μM); 1.5 μl] was added to each well and the mixture was incubated in a thermostatic bath at 37° C. for 60 minutes. The reconstituted HDL (50 μl) described in (1) above was added to each well and the mixture was reacted in a thermostatic bath at 37° C. for 60 minutes. The 96 well plate was moved onto ice and a precipitation reagent [a mixed solution of magnesium chloride (60 mM) and 0.1% dextran sulfate[1/1(v/v)]; 15 μl] was added to each well, and then the mixture was allowed to stand on ice for 15 minutes. The reaction solution (80 μl) in each well was moved to a filter plate and centrifuged at 1500 rpm for 1 minute, and the filtrate which passed through the filter was designated as the HDL fraction and the radioactivity thereof was measured with a scintillation counter. The percentage decrease in radioactivity in the case where the test compound was added in comparison with that in case where the test compound was not added was designated as the percentage CETP inhibition. The IC50 value was calculated from the percentage CETP inhibition.

Sequence of recombinant human CETP protein (P11597 18-493): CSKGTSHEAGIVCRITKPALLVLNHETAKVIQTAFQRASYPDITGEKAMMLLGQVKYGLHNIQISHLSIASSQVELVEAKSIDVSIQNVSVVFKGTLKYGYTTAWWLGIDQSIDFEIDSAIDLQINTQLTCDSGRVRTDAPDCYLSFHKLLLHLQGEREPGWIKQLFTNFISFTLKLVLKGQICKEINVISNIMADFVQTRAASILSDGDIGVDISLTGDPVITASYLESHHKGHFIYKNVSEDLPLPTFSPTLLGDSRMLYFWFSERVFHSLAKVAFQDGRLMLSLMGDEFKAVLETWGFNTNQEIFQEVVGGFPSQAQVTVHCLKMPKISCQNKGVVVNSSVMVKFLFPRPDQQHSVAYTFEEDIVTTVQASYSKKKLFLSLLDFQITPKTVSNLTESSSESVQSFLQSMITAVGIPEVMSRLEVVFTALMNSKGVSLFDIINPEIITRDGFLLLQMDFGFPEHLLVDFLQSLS

CC1(C)Cc2nc(C3CCN(c4ncc(OCC(CO)CO)cn4)CC3)c([C@@H](F)c3ccc(C(F)(F)F)cc3)c(C3CCC(F)(F)CC3)c2[C@@H](O)C1 [Example 1, (5S)-4-(4,4-Difluorocyclohexyl)-3-{(S)-fluoro[4-(trifluoromethyl)phenyl]methyl}-2-(1-{5-[3-hydroxy-2-(hydroxymethyl)propoxy]pyrimidin-2-yl}piperidin-4-yl)-7,7-dimethyl-5,6,7,8-tetrahydr oquinolin-5-ol dihydrochloride]
IC50 (dihydrochloride): 35.2 nM

CC1(C)Cc2nc(C3CCN(c4ncc(OCC(CO)CO)cn4)CC3)c([C@@H](F)c3ccc(C(F)(F)F)cc3)c(C3CCC(F)(F)CC3)c2[C@@H](O)C1 [Example 2, (5S)-4-(4,4-Difluorocyclohexyl)-3-{(S)-fluoro[4-(trifluoromethyl)phenyl]methyl}-2-(1-{5-[3-hydroxy-2-(hydroxymethyl)propoxy]pyrimidin-2-yl}piperidin-4-yl)-7,7-dimethyl-5,6,7,8-tetrahydroquinolin-5-ol dihydrobromide]
IC50: 30.8 nM

CC1(C)Cc2nc(C3CCN(c4ncc(OCC(C)(CO)CO)cn4)CC3)c([C@@H](F)c3ccc(C(F)(F)F)cc3)c(C3CCC(F)(F)CC3)c2[C@@H](O)C1 [Example 3, (5S)-4-(4,4-Difluorocyclohexyl)-3-{(S)-fluoro[4-(trifluoromethyl)phenyl]methyl}-2-(1-{5-[3-hydroxy-2-(hydroxymethyl)-2-methylpropoxy]pyrimidin-2-yl}piperidin-4-yl)-7,7-dimethyl-5,6,7,8-tetrahydroquinolin-5-ol dihydrobromide]
IC50 (dihydrobromide): 39.3 nM

CC1(C)Cc2nc(C3CCN(c4ncc(OCC(C)(CO)CO)cn4)CC3)c([C@@H](F)c3ccc(C(F)(F)F)cc3)c(C3CCC(F)(F)CC3)c2[C@@H](O)C1 [Example 4, (5S)-4-(4,4-Difluorocyclohexyl)-3-{(S)-fluoro[4-(trifluoromethyl)phenyl]methyl}-2-(1-{5-[3-hydroxy-2-(hydroxymethyl)-2-methylpropoxy]pyrimidin-2-yl}piperidin-4-yl)-7,7-dimethyl-5,6,7,8-tetrahydroquinolin-5-ol dihydrochloride]
IC50 (dihydrochloride): 22.3 nM

CC1(C)Cc2nc(C3CCN(c4ncc(OCC(C)(CO)CO)cn4)CC3)c([C@@H](F)c3ccc(C(F)(F)F)cc3)c(C3CCC(F)(F)CC3)c2[C@@H](O)C1 [Example 5, (5S)-4-(4,4-Difluorocyclohexyl)-3-{(S)-fluoro[4-(trifluoromethyl)phenyl]methyl}-2-(1-{5-[3-hydroxy-2-(hydroxymethyl)-2-methylpropoxy]pyrimidin-2-yl}piperidin-4-yl)-7,7-dimethyl-5,6,7,8-tetrahydroquinolin-5-ol methanesulfonate]
IC50: 28.5 nM

CC(C)(O)CCOc1cnc(N2CCC(c3nc4c(c(C5CCC(F)(F)CC5)c3[C@@H](F)c3ccc(C(F)(F)F)cc3)[C@@H](O)CC(C)(C)C4)CC2)nc1 [Example 8, (5S)-4-(4,4-Difluorocyclohexyl)-3-{(S)-fluoro[4-(trifluoromethyl)phenyl]methyl}-2-{1-[5-(3-hydroxy-3-methylbutoxy)pyrimidin-2-yl]piperidin-4-yl}-7,7-dimethyl-5,6,7,8-tetrahydroquinolin-5-ol disuccinate]
IC50 (disuccinate): 22.7 nM

CC(C)(O)CCOc1cnc(N2CCC(c3nc4c(c(C5CCC(F)(F)CC5)c3[C@@H](F)c3ccc(C(F)(F)F)cc3)[C@@H](O)CC(C)(C)C4)CC2)nc1 [Example 9, (5S)-4-(4,4-Difluorocyclohexyl)-3-{(S)-fluoro[4-(trifluoromethyl)phenyl]methyl}-2-{1-[5-(3-hydroxy-3-methylbutoxy)pyrimidin-2-yl]piperidin-4-yl}-7,7-dimethyl-5,6,7,8-tetrahydroquinolin-5-ol benzenesulfonate]
IC50: 11.6 nM

CC(C)(O)CCOc1cnc(N2CCC(c3nc4c(c(C5CCC(F)(F)CC5)c3[C@@H](F)c3ccc(C(F)(F)F)cc3)[C@@H](O)CC(C)(C)C4)CC2)nc1 [Example 10, (5S)-4-(4,4-Difluorocyclohexyl)-3-{(S)-fluoro[4-(trifluoromethyl)phenyl]methyl}-2-{1-[5-(3-hydroxy-3-methylbutoxy)pyrimidin-2-yl]piperidin-4-yl}-7,7-dimethyl-5,6,7,8-tetrahydroquinolin-5-ol maleate]
IC50 (maleate): 13 nM

CC(C)(O)CCOc1cnc(N2CCC(c3nc4c(c(C5CCC(F)(F)CC5)c3[C@@H](F)c3ccc(C(F)(F)F)cc3)[C@@H](O)CC(C)(C)C4)CC2)nc1 [Example 11, (5S)-4-(4,4-Difluorocyclohexyl)-3-{(S)-fluoro[4-(trifluoromethyl)phenyl]methyl}-2-{1-[5-(3-hydroxy-3-methylbutoxy)pyrimidin-2-yl]piperidin-4-yl}-7,7-dimethyl-5,6,7,8-tetrahydroquinolin-5-ol hemifumarate]
IC50: 28.9 nM

CC1(C)Cc2nc(C3CCN(c4ncc(OC[C@@H](O)CO)cn4)CC3)c([C@@H](F)c3ccc(C(F)(F)F)cc3)c(C3CCC(F)(F)CC3)c2[C@@H](O)C1 [Example 13, (5S)-4-(4,4-Difluorocyclohexyl)-2-[1-(5-{[(2S)-2,3-dihydroxypropyl]oxy}pyrimidin-2-yl)piperidin-4-yl]-3-{(S)-fluoro[4-(trifluoromethyl)phenyl]methyl}-7,7-dimethyl-5,6,7,8-tetrahydroquinolin-5-ol dihydrochloride]
IC50 (dihydrochloride): 58.4 nM

CC1(C)Cc2nc(C3CCN(c4ncc(OC[C@@H](O)CO)cn4)CC3)c([C@@H](F)c3ccc(C(F)(F)F)cc3)c(C3CCC(F)(F)CC3)c2[C@@H](O)C1 [Example 14, (5S)-4-(4,4-Difluorocyclohexyl)-2-[1-(5-{[(2S)-2,3-dihydroxypropyl]oxy}pyrimidin-2-yl)piperidin-4-yl]-3-{(S)-fluoro[4-(trifluoromethyl)phenyl]methyl}-7,7-dimethyl-5,6,7,8-tetrahydroquinolin-5-ol dihydrobromide]
IC50: 38.2 nM

CC1(C)Cc2nc(C3CCN(c4ncc(OC[C@H](O)CO)cn4)CC3)c([C@@H](F)c3ccc(C(F)(F)F)cc3)c(C3CCC(F)(F)CC3)c2[C@@H](O)C1 [Example 15, (5S)-4-(4,4-Difluorocyclohexyl)-2-[1-(5-{[(2R)-2,3-dihydroxypropyl]oxy}pyrimidin-2-yl)piperidin-4-yl]-3-{(S)-fluoro[4-(trifluoromethyl)phenyl]methyl}-7,7-dimethyl-5,6,7,8-tetrahydroquinolin-5-ol dihydrochloride]
IC50 (dihydrochloride): 38 nM

CC1(C)Cc2nc(C3CCN(c4ncc(OC[C@H](O)CO)cn4)CC3)c([C@@H](F)c3ccc(C(F)(F)F)cc3)c(C3CCC(F)(F)CC3)c2[C@@H](O)C1 [Example 16, (5S)-4-(4,4-Difluorocyclohexyl)-2-[1-(5-{[(2R)-2,3-dihydroxypropyl]oxy}pyrimidin-2-yl)piperidin-4-yl]-3-{(S)-fluoro[4-(trifluoromethyl)phenyl]methyl}-7,7-dimethyl-5,6,7,8-tetrahydroquinolin-5-ol dihydrobromide]
IC50: 28.5 nM

CC1(C)Cc2nc(C3CCN(c4ncc(OCCCS(C)(=O)=O)cn4)CC3)c([C@@H](F)c3ccc(C(F)(F)F)cc3)c(C3CCC(F)(F)CC3)c2[C@@H](O)C1 [Example 17, (5S)-4-(4,4-Difluorocyclohexyl)-3-{(S)-fluoro[4-(trifluoromethyl)phenyl]methyl}-7,7-dimethyl-2-(1-{5-[3-(methylsulfonyl)propoxy]pyrimidin-2-yl}piperidin-4-yl)-5,6,7,8-tetrahydroquinolin-5-ol dihydrochloride]
IC50 (dihydrochloride): 10 nM
